Source: PMC12888920, “MMP-9 regulates disulphide isomerase activity of TGM2 to enhance fusion glycoprotein-mediated syncytium formation of respiratory syncytial virus” (Protein & Cell, 2025)

Experiments:
[1] = tested on: RSV A2; assay: Suppression of RSV progeny viral titer (FFA, 72 hpi) in HEp-2 cells; assay type: cell-based, Respiratory syncytial virus; conditions: 0.2 and 1 MOI
Description: Figure 2. MMP-9 regulates late-stage RSV infection. (A) Time-of-addition assay design (left). HEp-2 cells were treated with metalloproteinase inhibitors under three regimens: “Full-time” (2 h pretreatment + continuous exposure), “Entry” (viral attachment phase only), or “Post-entry” (≥ 2 hpi). Cells infected with RSV A2 (MOI = 1) were analyzed for cytopathic effect inhibition at 72 hpi versus DMSO controls. mean ± SD, n = 3. (B) No inhibition of RSV F/G/SH pseudovirus entry by doxycycline hyclate or JNJ0966 (5 µmol/L). mean ± SD, n = 3. (C) Temporal sensitivity analysis (left). Viral RNA levels (22 hpi) in HEp-2 cells treated with 5 µmol/L inhibitors at defined intervals: pre-infection (−2–0 h), entry (0–2 h), or post-entry (2–16 h) phases (right). mean ± SD, n = 3. (D) Multicycle replication kinetics. […] (F) Dose-dependent suppression of RSV progeny (MOI = 0.2/1) by inhibitors (72 hpi), quantified by FFA. mean ± SD, n = 3. […]
To evaluate the effects of the compounds on RSV assembly and release, we treated HEp-2 cells with the inhibitors at 10 hpi (the onset of virion assembly) or 16 hpi (the onset of virion release) following RSV infection ([Malhi et al., 2021]). Supernatants were collected at 22 hpi for viral titer quantification. […] Furthermore, at 72 hpi, viral titers were quantified following infection with varying doses of RSV (0.2 and 1 MOI).

[2] = tested on: RSV F/G/SH pseudovirus; assay: RSV F/G/SH pseudovirus entry assay (luciferase); assay type: cell-based, Respiratory syncytial virus; conditions: 5 µmol/L, HEp-2, 48 hpi
Description: Figure 2. MMP-9 regulates late-stage RSV infection. (A) Time-of-addition assay design (left). HEp-2 cells were treated with metalloproteinase inhibitors under three regimens: “Full-time” (2 h pretreatment + continuous exposure), “Entry” (viral attachment phase only), or “Post-entry” (≥ 2 hpi). Cells infected with RSV A2 (MOI = 1) were analyzed for cytopathic effect inhibition at 72 hpi versus DMSO controls. mean ± SD, n = 3. (B) No inhibition of RSV F/G/SH pseudovirus entry by doxycycline hyclate or JNJ0966 (5 µmol/L). mean ± SD, n = 3. (C) Temporal sensitivity analysis (left). Viral RNA levels (22 hpi) in HEp-2 cells treated with 5 µmol/L inhibitors at defined intervals: pre-infection (−2–0 h), entry (0–2 h), or post-entry (2–16 h) phases (right). mean ± SD, n = 3. (D) Multicycle replication kinetics. Intracellular RSV RNA (fusion gene copies) in HEp-2 cells treated with 5 µmol/L inhibitors at indicated time points (4–144 hpi). mean ± SD, n = 3. (E) Viral assembly/release inhibition assay. Supernatant viral titers at 22 hpi after post-entry treatment (10/16 hpi) (right). mean ± SD, n = 3. (F) Dose-dependent suppression of RSV progeny (MOI = 0.2/1) by inhibitors (72 hpi), quantified by FFA. mean ± SD, n = 3. […] The results are representatively shown with three random experiments. The error bars indicate the mean ± SD of three technical replicates (n = 3). […]

Compound	inhibition of RSV replication (viral titers) [1]	inhibition of RSV F/G/SH pseudovirus entry [2]
COc1ccccc1Nc1nc(-c2sc(NC(C)=O)nc2C)cs1 [JNJ0966]	dose-dependent inhibition	No inhibition
Doxycycline hyclate	dose-dependent inhibition	No inhibition
